Among the data in PubChem BioAssay (NCI) are GI50 and TGI values, retold here.

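Compound exposure: 48 hours, 5 concentrations, 96-well plates. At the GI50, growth is halved. TGI: total growth inhibition.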 Bounds are passed on as bounds.

Some test systems named below: 786-0 renal; A549 NSCLC; ACHN renal; COLO 205 colon; HT29 colon; MDA-MB-231 breast; NCI-H226 lung; NCI-H460 lung; OVCAR-5 ovarian; T-47D breast.
Holding throughout (assay): growth of human tumour cells (NCI), 48 h

In the case of `O=C(O)c1ccc(-c2ccc(C(=O)O)cc2I)c(I)c1`, the GI50 in the experiment with 786-0 renal, in the experiment with A549 NSCLC, in the experiment on ACHN renal, in the experiment on COLO 205 colon, with HT29 colon and in the experiment on MDA-MB-231 breast was over 100 µM throughout. Further, the GI50 in the experiment with NCI-H226 lung, in the experiment with NCI-H460 lung, in the experiment on OVCAR-5 ovarian and in the experiment with T-47D breast was over 100 µM each time. In addition, the TGI with 786-0 renal, with A549 NSCLC, with ACHN renal, with COLO 205 colon, with HT29 colon and in the experiment on MDA-MB-231 breast was over 100 µM each time. Further, the TGI in the experiment with NCI-H226 lung, in the experiment on NCI-H460 lung, in the experiment with OVCAR-5 ovarian and in the experiment on T-47D breast was over 100 µM throughout.
In the case of `O=C(NCCN1CCOCC1)Nc1ccc(-c2cc3c(Nc4ccc(Oc5cccc(C(F)(F)F)c5)c(Cl)c4)ncnc3s2)cc1`, the GI50 with 786-0 renal is 0.67 µM; in the experiment with A549 NSCLC it was 1.04 µM; in the experiment with ACHN renal, 1.74 µM; in the experiment on COLO 205 colon it was 1.25 µM; in the experiment on HT29 colon it was 0.896 µM; with MDA-MB-231 breast it was 1.07 µM. Also, the GI50 with NCI-H226 lung is 3.18 µM; with NCI-H460 lung it was 1.12 µM; with OVCAR-5 ovarian, 1.66 µM; in the experiment with T-47D breast it was 1.07 µM. For the same compound, the TGI in the experiment on 786-0 renal is 1.6 µM; with A549 NSCLC, 2.42 µM; in the experiment on ACHN renal, 6.06 µM; in the experiment with COLO 205 colon it was 2.95 µM; with HT29 colon, 1.69 µM; with MDA-MB-231 breast, 2.54 µM. Also, the TGI was determined as 17.1 µM with NCI-H226 lung, 2.54 µM in the experiment on NCI-H460 lung, 6.32 µM with OVCAR-5 ovarian and 3.21 µM in the experiment on T-47D breast.
Take `CCN(Cc1nc2cc(C(F)(F)F)ccc2nc1-c1ccccc1)c1ccc(OC)c(OC)c1`: the GI50 in the experiment with 786-0 renal is 15.7 µM; with A549 NSCLC, 0.369 µM; in the experiment with ACHN renal it was 16.4 µM; in the experiment with COLO 205 colon it was 31.4 µM; in the experiment on HT29 colon, 14.9 µM; in the experiment on MDA-MB-231 breast it was 12.7 µM. In addition, the GI50 in the experiment on NCI-H226 lung is 13.2 µM; with NCI-H460 lung, 22.2 µM; in the experiment with OVCAR-5 ovarian, 21.6 µM; in the experiment on T-47D breast it was 18.5 µM. Besides, the TGI in the experiment on 786-0 renal was 30.3 µM; with A549 NSCLC, 16.3 µM; in the experiment on ACHN renal it was 44 µM; in the experiment with COLO 205 colon it was over 100 µM; in the experiment on HT29 colon, over 100 µM; in the experiment on MDA-MB-231 breast it was 29.2 µM. Further, the TGI in the experiment with NCI-H226 lung is 29 µM; in the experiment on NCI-H460 lung, over 100 µM; with OVCAR-5 ovarian it was 46 µM; in the experiment with T-47D breast it was 61.2 µM.
Turning to `CCn1c(-c2nonc2N)nc2c(C#CC(C)(C)O)nc(O[C@@H](CN)c3ccccc3)cc21`, the GI50 in the experiment with 786-0 renal was 0.16 µM; in the experiment on A549 NSCLC, 0.108 µM; in the experiment with ACHN renal, 0.689 µM; with COLO 205 colon it was 0.123 µM; with HT29 colon, 0.119 µM; in the experiment on MDA-MB-231 breast, 0.528 µM. In addition, the GI50 in the experiment with NCI-H226 lung is 0.624 µM; in the experiment on NCI-H460 lung, 0.0621 µM; in the experiment with OVCAR-5 ovarian, 0.859 µM; in the experiment on T-47D breast, 0.016 µM. Also, the TGI with 786-0 renal amounted to 2.49 µM; in the experiment with A549 NSCLC, 3.7 µM; in the experiment with ACHN renal, 4.73 µM; in the experiment with COLO 205 colon, 0.646 µM; with HT29 colon it was 0.735 µM; in the experiment with MDA-MB-231 breast, 2.65 µM. Moreover, the TGI with NCI-H226 lung is 1.57 µM; in the experiment with NCI-H460 lung it was 1.06 µM; in the experiment with OVCAR-5 ovarian, 15.8 µM; with T-47D breast it was 2.34 µM.
In the case of `COc1ccc2c(c1OC)-c1c(c3ccc([N+](=O)[O-])cc3c(=O)n1CCCN=[N+]=[N-])C2=O`, the GI50 was 3.44 µM in the experiment with 786-0 renal; 4.18 µM in the experiment with A549 NSCLC; 3.63 µM with ACHN renal; over 100 µM with COLO 205 colon; 31.7 µM in the experiment on HT29 colon; over 100 µM with MDA-MB-231 breast. Moreover, the GI50 in the experiment with NCI-H226 lung was 22.8 µM; with NCI-H460 lung, 9.97 µM; with OVCAR-5 ovarian, over 100 µM; in the experiment with T-47D breast, 5.29 µM. The TGI is 15.8 µM with 786-0 renal; over 100 µM with A549 NSCLC; 22.1 µM in the experiment with ACHN renal; over 100 µM with COLO 205 colon; over 100 µM in the experiment on HT29 colon; over 100 µM in the experiment with MDA-MB-231 breast. Also, the TGI in the experiment with NCI-H226 lung was 99.3 µM; in the experiment on NCI-H460 lung, over 100 µM; in the experiment on OVCAR-5 ovarian it was over 100 µM; with T-47D breast, over 100 µM.
Take `CCCC[P+](c1ccccc1)(c1ccccc1)c1ccccc1`: the GI50 in the experiment with 786-0 renal is 19.5 µM; with A549 NSCLC it was 4.4 µM; in the experiment on ACHN renal it was 29 µM; in the experiment with COLO 205 colon, 1.24 µM; in the experiment with HT29 colon it was 3.03 µM; in the experiment on MDA-MB-231 breast, 9.13 µM. The GI50 was 5.34 µM in the experiment with NCI-H226 lung, 1.96 µM with NCI-H460 lung, 12.5 µM in the experiment with OVCAR-5 ovarian and 0.628 µM in the experiment with T-47D breast. Besides, the TGI with 786-0 renal was over 100 µM; in the experiment with A549 NSCLC it was over 100 µM; in the experiment with ACHN renal, over 100 µM; in the experiment with COLO 205 colon, 7.15 µM; in the experiment on HT29 colon it was over 100 µM; in the experiment with MDA-MB-231 breast, over 100 µM. For the same compound, the TGI was over 100 µM in the experiment with NCI-H226 lung, 24.7 µM in the experiment on NCI-H460 lung, over 100 µM with OVCAR-5 ovarian and over 100 µM in the experiment with T-47D breast.
In the case of `COC(=O)[C@@H](Cc1c[nH]c2ccccc12)NC(=O)/C=C/c1ccccc1`, the GI50 in the experiment on 786-0 renal is 3.96 µM; in the experiment with A549 NSCLC it was 3.91 µM; with ACHN renal it was 4.08 µM; in the experiment with COLO 205 colon, 12.4 µM; in the experiment with HT29 colon, 3.9 µM; with MDA-MB-231 breast it was 2.93 µM. For the same compound, the GI50 with NCI-H226 lung was 6.06 µM; in the experiment with NCI-H460 lung it was 3.26 µM; in the experiment with OVCAR-5 ovarian it was 5.43 µM; with T-47D breast, 8.41 µM. Besides, the TGI in the experiment with 786-0 renal is over 100 µM; in the experiment on A549 NSCLC, over 100 µM; in the experiment with ACHN renal, over 100 µM; with COLO 205 colon it was 50.3 µM; in the experiment on HT29 colon, 14.1 µM; with MDA-MB-231 breast it was 8.63 µM. The TGI is over 100 µM with NCI-H226 lung, 15.1 µM with NCI-H460 lung, over 100 µM in the experiment with OVCAR-5 ovarian and over 100 µM in the experiment on T-47D breast.
